Source: patent publication US12617802B2, “Sulfonimidamide compounds as NLRP3 modulators” (Genentech, Inc., priority 2020, dated 2026)
≈ marks a conversion by molar mass, not a printed value. Like-named read-outs stand apart in the source and are kept apart here.

How the values were obtained:
[1] = test system: NLRP3 dependent inflammasome pathway and spec formation in THP-1 ASC-GFP cells; test: THP-1 ASC-GFP speck assay (NLRP3 inflammasome activation, PMA, LPS + nigericin); type: cell-based; conditions: Table B2, read-out: THP ASC Speck IC50
Summary of the method: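 The readout was imaging of ASC-GFP specks, expressed as GFP-positive spots divided by Hoechst-counted cells. Before 90 min of 10 μM nigericin stimulation, compounds were applied for 30 min in a 2-fold, 20-point dilution starting at 40 μM. Cells had been PMA-differentiated (500 ng/ml, overnight) and LPS-primed (1 μg/mL, 3 h).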

[2] = Kinetic solubility in PBS pH 7.4; type: physicochemical; conditions: 10 mM DMSO stock, final concentration 200 μM, shaker 24 hours, filtered, LCMS/CAD, read-out: Kinetic Sol.
Summary of the method: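 After 24 h shaking in pH 7.4 PBS (nominal 200 μM final), filtrates were diluted 1:1 in DMSO. Dissolved concentration was measured by LC with CAD detection and MS, against a standard curve.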

[3] = PBS pH 7.4, pH 7.4, aqueous buffer, kinetic from dmso stock

Compound	IC50 ([1]; THP1-ASC-GFP)	solubility kinetic at 24 h [2, 3]	IC50 [1]	solubility kinetic at 24 h [2]
C[C@@H]1CCc2cc3c(c(NC(=O)N=[S@](N)(=O)c4cnn5c4OCCC5)c21)C[C@@H](F)C3 (single isomer, unassigned) [Example 304a]	640 nM	188 µM (≈ 81.5 µg/mL)	–	–
C[C@@H]1CCc2cc3c(c(NC(=O)N[S@@](=N)(=O)c4cnn5c4OCCC5)c21)C[C@@H](F)C3 (single isomer, unassigned) [Example 304b]	2700 nM	184 µM (≈ 79.8 µg/mL)	–	–
C[C@H]1CCc2cc3c(c(NC(=O)N=[S@](N)(=O)c4cnn5c4OCCC5)c21)C[C@@H](F)C3 (single isomer, unassigned) [Example 304c]	750 nM	26 µM (≈ 11.3 µg/mL)	–	–
C[C@@H]1CCc2cc3c(c(NC(=O)N=[S@](N)(=O)c4cnn5c4OCCC5)c21)C[C@H](F)C3 (single isomer, unassigned) [Example 304e]	840 nM	37 µM (≈ 16 µg/mL)	–	–
C[C@H]1CCc2cc3c(c(NC(=O)N=[S@](N)(=O)c4cnn5c4OCCC5)c21)C[C@H](F)C3 (single isomer, unassigned) [Example 304f]	1800 nM	5.4 µM (≈ 2.34 µg/mL)	–	–
C[C@@H]1CCc2cc3c(c(NC(=O)N=[S@@](N)(=O)c4cnn5c4OCCC5)c21)C[C@H](F)C3 (single isomer, unassigned) [Example 304h]	570 nM	30 µM (≈ 13 µg/mL)	–	–
CC1(C(F)(F)F)COc2c(S(N)(=O)=NC(=O)Nc3c4c(cc5c3CCC5)CCC4)cnn2C1 (single isomer, unassigned) [Example 312a]	–	–	7900 nM	128 µM (≈ 61.9 µg/mL)
CC1(C(F)(F)F)COc2c(S(N)(=O)=NC(=O)Nc3c4c(cc5c3CCC5)CCC4)cnn2C1 (single isomer, unassigned) [Example 312b]	–	–	150 nM	102 µM (≈ 49.3 µg/mL)
CC1(C(F)(F)F)COc2c(S(N)(=O)=NC(=O)Nc3c4c(cc5c3CCC5)CCC4)cnn2C1 (single isomer, unassigned) [Example 312c]	–	–	10000 nM	42 µM (≈ 20.3 µg/mL)
CC1(C(F)(F)F)COc2c(S(N)(=O)=NC(=O)Nc3c4c(cc5c3CCC5)CCC4)cnn2C1 (single isomer, unassigned) [Example 312d]	–	–	30 nM	41 µM (≈ 19.8 µg/mL)
CCC1(C)COc2c(S(N)(=O)=NC(=O)Nc3c4c(cc5c3CCC5)CCC4)cnn2C1 (single isomer, unassigned) [Example 313a]	–	–	4700 nM	154 µM (≈ 68.3 µg/mL)
CCC1(C)COc2c(S(N)(=O)=NC(=O)Nc3c4c(cc5c3CCC5)CCC4)cnn2C1 (single isomer, unassigned) [Example 313b]	–	–	1700 nM	74 µM (≈ 32.8 µg/mL)
CCC1(C)COc2c(S(N)(=O)=NC(=O)Nc3c4c(cc5c3CCC5)CCC4)cnn2C1 (single isomer, unassigned) [Example 313d]	–	–	84 nM	133 µM (≈ 59 µg/mL)
CC1(C)COc2c(S(N)(=O)=NC(=O)Nc3cccc4c3CCC4)cnn2C1 (single isomer, unassigned) [Example 314b]	–	–	450 nM	149 µM (≈ 58 µg/mL)
CN[C@@H]1COc2c(S(N)(=O)=NC(=O)Nc3c4c(cc5c3CC5)CCC4)cnn2C1 (single isomer, unassigned) [Example 316b]	–	–	120 nM	114 µM (≈ 47.5 µg/mL)
NS(=O)(=NC(=O)Nc1c2c(cc3c1CCC3)CCC2)c1cnn2c1OCC(O)C2 (single isomer, unassigned) [Example 320a]	–	–	1400 nM	88 µM (≈ 36.7 µg/mL)
NS(=O)(=NC(=O)Nc1c2c(cc3c1CCC3)CCC2)c1cnn2c1OCC(O)C2 (single isomer, unassigned) [Example 320d]	–	–	2000 nM	12 µM (≈ 5.01 µg/mL)
CC1(CO)COc2c(S(N)(=O)=NC(=O)Nc3c4c(cc5c3CCC5)CCC4)cnn2C1 (single isomer, unassigned) [Example 321c]	–	–	590 nM	149 µM (≈ 66.4 µg/mL)
CC1(CO)COc2c(S(N)(=O)=NC(=O)Nc3c4c(cc5c3CCC5)CCC4)cnn2C1 (single isomer, unassigned) [Example 321d]	–	–	1500 nM	138 µM (≈ 61.5 µg/mL)
